Test results from publication PMC5845004, “Novel (p)ppGpp Binding and Metabolizing Proteins of Escherichia coli” (mBio, 2018).
Values joined by “and” are separate entries in the source; they are usually repeats but may differ in a detail not shown here. Identical values can stand only once. “Also recorded” adds a separate entry of the source. Like-named read-outs stand apart in the source and are kept apart here.

Tests used:
Hpt [1] = biological target: T1, Hpt (Escherichia coli, UniProt P0A9M2); test: DRaCALA Kd determination, purified Hpt; format: binding, E. coli; conditions: 2 nM 32P-labeled ligand, read-out: apparent Kd, Hpt
T1 sequence (P0A9M2 whole entry): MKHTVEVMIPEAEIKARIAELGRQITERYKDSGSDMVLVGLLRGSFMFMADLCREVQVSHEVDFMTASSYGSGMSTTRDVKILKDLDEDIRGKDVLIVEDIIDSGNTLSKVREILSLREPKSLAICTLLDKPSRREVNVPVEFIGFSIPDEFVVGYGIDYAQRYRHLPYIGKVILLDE
Experimental: (§2) For Kd measurements by DRaCALA, 2-fold serial dilutions from the highest possible concentrations of each purified protein were prepared in binding buffer B, and approximately 2 nM concentrations of α-^32P-labeled ppGpp, pppGpp, GTP, and GDP were added. The mixtures were incubated for 5 min at RT before spotting of 2 µl of the reaction mixtures onto nitrocellulose membranes. The fractions of bound ligand and the apparent Kd values were calculated as previously described ([37]). For competition assays, purified proteins at the specified concentrations were incubated with 2 nM [α-^32P]ppGpp or [α-^32P]pppGpp in the presence of 100 μM competitor nucleotides in binding buffer B. The reaction mixtures were incubated for 5 min at RT, 2 µl was spotted onto nitrocellulose membranes, and the values corresponding to the bound fractions were determined. EDTA was added at excess concentrations as specified for each case.

Der = Der (Escherichia coli, UniProt P0A6P5); test: DRaCALA Kd determination, purified Der; format: binding, E. coli; conditions: 2 nM 32P-labeled ligand, read-out: apparent Kd, Der
Chain of Der (P0A6P5 whole entry): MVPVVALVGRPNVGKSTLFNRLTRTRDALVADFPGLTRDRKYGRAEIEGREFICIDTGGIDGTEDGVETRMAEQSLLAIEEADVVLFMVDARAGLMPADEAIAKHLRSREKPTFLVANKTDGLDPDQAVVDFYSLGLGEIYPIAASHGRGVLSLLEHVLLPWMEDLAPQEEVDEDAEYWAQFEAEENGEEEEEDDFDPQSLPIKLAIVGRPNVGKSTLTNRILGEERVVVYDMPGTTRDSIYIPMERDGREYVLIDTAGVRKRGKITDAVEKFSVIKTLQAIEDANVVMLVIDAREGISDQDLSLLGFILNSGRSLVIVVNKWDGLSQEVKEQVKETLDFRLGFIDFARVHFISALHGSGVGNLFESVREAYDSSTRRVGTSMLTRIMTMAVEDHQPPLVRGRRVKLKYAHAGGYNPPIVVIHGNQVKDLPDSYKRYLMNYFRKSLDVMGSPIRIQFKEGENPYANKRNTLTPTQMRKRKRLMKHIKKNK
Experimental: (§3) For Kd measurements by DRaCALA, 2-fold serial dilutions from the highest possible concentrations of each purified protein were prepared in binding buffer B, and approximately 2 nM concentrations of α-^32P-labeled ppGpp, pppGpp, GTP, and GDP were added. The mixtures were incubated for 5 min at RT before spotting of 2 µl of the reaction mixtures onto nitrocellulose membranes. […] For competition assays, purified proteins at the specified concentrations were incubated with 2 nM [α-^32P]ppGpp or [α-^32P]pppGpp in the presence of 100 μM competitor nucleotides in binding buffer B. The reaction mixtures were incubated for 5 min at RT, 2 µl was spotted onto nitrocellulose membranes, and the values corresponding to the bound fractions were determined. EDTA was added at excess concentrations as specified for each case.

HypB = HypB (Escherichia coli, UniProt P0AAN3); test: DRaCALA Kd determination, purified HypB; format: binding, E. coli; conditions: 2 nM 32P-labeled ligand, read-out: apparent Kd, HypB
Chain of HypB (P0AAN3 whole entry): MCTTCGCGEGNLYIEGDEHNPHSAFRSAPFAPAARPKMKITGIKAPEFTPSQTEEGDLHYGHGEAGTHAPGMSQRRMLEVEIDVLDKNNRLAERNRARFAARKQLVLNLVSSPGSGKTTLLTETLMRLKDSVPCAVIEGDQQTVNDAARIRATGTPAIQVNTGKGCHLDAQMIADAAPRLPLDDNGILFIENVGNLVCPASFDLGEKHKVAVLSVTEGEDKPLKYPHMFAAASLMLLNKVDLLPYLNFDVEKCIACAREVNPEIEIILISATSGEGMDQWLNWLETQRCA
Experimental: as §3

UshA = biological target: T2, UshA (Escherichia coli, UniProt P07024); test: DRaCALA competition assay, lysate with overexpressed UshA; format: binding; conditions: cell lysate, 2 nM hot (p)ppGpp, 100 µM cold competitor
T2 sequence (P07024 26-550): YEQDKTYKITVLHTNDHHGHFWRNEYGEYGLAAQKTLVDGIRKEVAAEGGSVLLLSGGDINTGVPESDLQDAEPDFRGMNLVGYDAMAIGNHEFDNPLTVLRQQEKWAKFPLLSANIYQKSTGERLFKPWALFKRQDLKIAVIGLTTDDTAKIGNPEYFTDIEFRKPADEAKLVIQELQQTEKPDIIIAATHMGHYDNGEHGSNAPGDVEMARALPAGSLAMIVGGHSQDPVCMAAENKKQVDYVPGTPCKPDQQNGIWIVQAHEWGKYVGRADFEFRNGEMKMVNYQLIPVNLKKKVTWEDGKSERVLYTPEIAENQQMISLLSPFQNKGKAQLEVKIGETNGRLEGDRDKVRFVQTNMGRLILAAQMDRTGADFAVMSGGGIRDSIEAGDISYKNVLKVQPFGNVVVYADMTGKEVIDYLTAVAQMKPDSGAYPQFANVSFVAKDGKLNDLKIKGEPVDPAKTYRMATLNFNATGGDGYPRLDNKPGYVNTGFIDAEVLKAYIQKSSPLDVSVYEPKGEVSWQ
Experimental: Bacterial cells were collected and frozen at −80°C.

LepA = LepA (Escherichia coli, UniProt P60785); test: DRaCALA binding curves, purified LepA; design: species or system E. coli; conditions: Kd could not be determined
Chain of LepA (P60785 whole entry): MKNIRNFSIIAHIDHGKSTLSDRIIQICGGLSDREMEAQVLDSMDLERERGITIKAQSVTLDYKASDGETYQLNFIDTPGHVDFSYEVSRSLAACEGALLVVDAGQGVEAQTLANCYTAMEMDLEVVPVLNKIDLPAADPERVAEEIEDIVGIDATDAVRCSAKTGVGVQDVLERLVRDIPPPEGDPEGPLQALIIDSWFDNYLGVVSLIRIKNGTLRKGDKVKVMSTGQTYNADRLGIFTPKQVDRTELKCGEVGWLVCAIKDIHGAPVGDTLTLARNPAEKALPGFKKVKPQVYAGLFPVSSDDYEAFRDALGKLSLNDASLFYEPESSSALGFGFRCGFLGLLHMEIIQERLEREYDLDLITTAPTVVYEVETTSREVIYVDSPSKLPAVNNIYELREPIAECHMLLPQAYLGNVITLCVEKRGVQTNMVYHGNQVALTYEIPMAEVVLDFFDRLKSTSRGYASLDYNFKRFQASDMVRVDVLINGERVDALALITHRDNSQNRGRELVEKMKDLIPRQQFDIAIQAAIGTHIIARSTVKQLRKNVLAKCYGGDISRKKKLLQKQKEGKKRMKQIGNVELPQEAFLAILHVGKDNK
Experimental: as §2

TrmE = TrmE (Escherichia coli, UniProt P25522); test: In vitro cleavage assay (TLC), TrmE; format: biochemical, E. coli; conditions: 10 µM TrmE, buffer B, with 100 mM potassium where stated, 10 min
Chain of TrmE (P25522 whole entry): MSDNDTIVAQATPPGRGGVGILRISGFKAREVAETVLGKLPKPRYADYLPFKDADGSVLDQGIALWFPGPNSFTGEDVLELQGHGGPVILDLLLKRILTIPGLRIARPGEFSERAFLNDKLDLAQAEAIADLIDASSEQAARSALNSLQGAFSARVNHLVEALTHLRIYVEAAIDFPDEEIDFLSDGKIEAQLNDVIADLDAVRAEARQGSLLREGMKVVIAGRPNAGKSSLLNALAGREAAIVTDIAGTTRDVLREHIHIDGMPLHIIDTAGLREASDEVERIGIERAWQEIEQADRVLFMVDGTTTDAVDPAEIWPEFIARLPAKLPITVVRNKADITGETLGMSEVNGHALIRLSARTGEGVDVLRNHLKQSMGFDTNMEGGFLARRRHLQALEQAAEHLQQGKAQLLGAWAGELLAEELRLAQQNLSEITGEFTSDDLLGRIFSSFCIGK
Experimental: The purified His6-MutT and His6-NudG proteins were tested for their relative levels of cleavage of ppGpp compared to those seen with their native substrates. For this, a 1 μM concentration of each protein and a 10 nM concentration of [α-^32P]ppGpp were used together with 100 μM concentrations of cold competitors [ppGpp, GTP, ATP, 8-oxo-(d)GTP, 2-hydroxyl-(d)ATP] or 50 mM EDTA in buffer B. The samples were incubated at 30°C for 10 min and for 1 h before the reactions were stopped by adding 50 mM EDTA. The cleavage products were resolved by TLC as described above. The purified His6-NadR and His6-TrmE proteins were tested for their cleavage of both GTP and ppGpp. For cleavage of GTP, 10 μM concentrations of His6-MBP, His6-TrmE, and 20 μM His6-NadR proteins were used with 2 nM [α-^32P]GTP and 100 μM cold GTP in buffer B. For cleavage of ppGpp, 10 μM concentrations of His6-TrmE, His6-MBP, and His6-NadR proteins were used with 10 nM [α-^32P]ppGpp in buffer B. Of note, for His6-TrmE, another reaction was also performed in buffer B supplemented with 100 mM KCl. The reactions were performed at RT for 10 min and were stopped by adding 17% formic acid. The cleavage products were resolved by TLC as described above.
(§1) A 20 μM concentration of each of purified proteins MutT, NudG, NadR, TrmE, and MBP (as a negative control) was incubated with 100 μM ppGpp in buffer B (containing 40 mM Tris [pH 7.5], 100 mM NaCl, and 10 mM MgCl2) for 20 min at room temperature. Samples were snap-frozen on dry ice and analyzed with UPLC-MS afterward. All samples and buffers were stored at −80°C, thawed on ice, and kept at 4°C during analysis. For the analysis, a UPLC-quadrupole time of flight (UPLC-qTOF) method (Waters) was used. […] The detection conditions were as follows: photodiode array detector (PDA), […] (evaluated at 260 nm); MS, ionization; electrospray ionization (ESI+), scan, 200 to 800 m/z with lock mass correction. […]

NadR = NadR (Escherichia coli, UniProt P27278); test: In vitro cleavage assay (TLC), NadR; format: biochemical, E. coli; conditions: 10-20 µM NadR, buffer B with 100 mM NaCl, 10 min
Chain of NadR (P27278 whole entry): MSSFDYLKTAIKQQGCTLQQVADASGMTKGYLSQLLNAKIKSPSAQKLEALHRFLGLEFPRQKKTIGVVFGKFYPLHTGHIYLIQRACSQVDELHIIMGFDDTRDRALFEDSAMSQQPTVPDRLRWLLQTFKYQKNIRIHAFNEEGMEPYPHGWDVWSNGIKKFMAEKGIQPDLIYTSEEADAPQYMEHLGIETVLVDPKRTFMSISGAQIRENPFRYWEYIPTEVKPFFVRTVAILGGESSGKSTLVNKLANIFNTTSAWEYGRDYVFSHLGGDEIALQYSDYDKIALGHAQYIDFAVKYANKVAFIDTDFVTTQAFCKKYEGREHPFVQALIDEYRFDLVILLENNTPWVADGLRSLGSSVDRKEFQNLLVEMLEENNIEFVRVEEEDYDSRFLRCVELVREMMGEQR
Experimental: The purified His6-MutT and His6-NudG proteins were tested for their relative levels of cleavage of ppGpp compared to those seen with their native substrates. For this, a 1 μM concentration of each protein and a 10 nM concentration of [α-^32P]ppGpp were used together with 100 μM concentrations of cold competitors [ppGpp, GTP, ATP, 8-oxo-(d)GTP, 2-hydroxyl-(d)ATP] or 50 mM EDTA in buffer B. The samples were incubated at 30°C for 10 min and for 1 h before the reactions were stopped by adding 50 mM EDTA. The cleavage products were resolved by TLC as described above. The purified His6-NadR and His6-TrmE proteins were tested for their cleavage of both GTP and ppGpp. […]
as §1, with “afterward.” for “afterward. All samples and buffers were stored at −80°C, thawed on ice, and kept at 4°C during analysis. For the analysis, a UPLC-quadrupole time of flight (UPLC-qTOF) method (Waters) was used.”

Gpt = Gpt (Escherichia coli, UniProt P0A9M5); design: method as in ref 29-32 (Table S1 refs 1, 2); conditions: ref 29-32 (Table S1 refs 1, 2); cited from earlier work
Chain of Gpt (P0A9M5 whole entry): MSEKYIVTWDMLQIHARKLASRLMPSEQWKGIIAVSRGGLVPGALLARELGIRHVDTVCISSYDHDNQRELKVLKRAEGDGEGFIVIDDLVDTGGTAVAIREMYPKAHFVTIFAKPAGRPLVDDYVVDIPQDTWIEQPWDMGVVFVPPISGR

Hpt [2] = biological target: T1, Hpt; design: method as in ref 29-32 (Table S1 refs 1, 2); conditions: ref 29-32 (Table S1 refs 1, 2); cited from earlier work
HprT = tested on: HprT; design: method as in ref 46 (Table S1 ref 3); conditions: ref 46 (Table S1 ref 3); read-out: IC50, B. subtilis HprT; cited from earlier work
Gmk = tested on: Gmk; design: method as in Table S1 (3); conditions: ref Table S1 (3); read-out: IC50, B. subtilis Gmk; cited from earlier work
ObgE = ObgE (Escherichia coli, UniProt P42641); design: method as in Table S1 (7); conditions: ref Table S1 (7); cited from earlier work
Chain of ObgE (P42641 whole entry): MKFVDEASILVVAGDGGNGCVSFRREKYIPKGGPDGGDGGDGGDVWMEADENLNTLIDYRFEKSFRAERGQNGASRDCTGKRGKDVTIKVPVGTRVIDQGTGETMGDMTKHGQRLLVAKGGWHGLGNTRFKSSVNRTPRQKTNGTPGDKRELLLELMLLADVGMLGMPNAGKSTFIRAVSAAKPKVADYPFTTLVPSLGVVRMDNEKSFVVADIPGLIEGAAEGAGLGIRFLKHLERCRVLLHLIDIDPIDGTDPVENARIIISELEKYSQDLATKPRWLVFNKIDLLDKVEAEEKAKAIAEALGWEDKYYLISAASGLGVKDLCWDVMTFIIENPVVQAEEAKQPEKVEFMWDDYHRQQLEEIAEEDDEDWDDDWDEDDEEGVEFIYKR

EF-G = biological target: EF-G; design: method as in Table S1 (9); conditions: ref Table S1 (9), cited from earlier work

Row | SMILES | Kd (Hpt [1]) [µM] | Kd (Der) | Kd (HypB) [µM] | competition for UshA-bound (p)ppGpp (UshA) | relative binding to LepA (binding curves) (LepA) | cleavage by TrmE (TrmE) | cleavage by NadR (NadR) | IC50 (Gpt) | IC50 (Hpt [2]) | IC50 (HprT) [µM] | IC50 (Gmk) [µM] | Ki (ObgE) [µM] | Ki (EF-G; in the absence of EF-Ts) [µM] | Ki (EF-G; in the presence of EF-Ts) [µM]
1 | Nc1nc2c(ncn2[C@@H]2O[C@H](COP(=O)(O)OP(=O)(O)OP(=O)(O)O)[C@@H](OP(=O)(O)OP(=O)(O)O)[C@H]2O)c(=O)[nH]1 [pppGpp, guanosine pentaphosphate] | 6.2 ± 0.8 | 6.9 ± 2.9 µM | 14.8 ± 5.1 | could outcompete the bound, radiolabeled (p)ppGpp |  |  |  |  |  |  |  |  |  | 
2 | Nc1nc2c(ncn2[C@@H]2O[C@H](COP(=O)(O)OP(=O)(O)O)[C@@H](OP(=O)(O)OP(=O)(O)O)[C@H]2O)c(=O)[nH]1 [ppGpp, guanosine tetraphosphate] | 6.1 ± 0.9 | 1.8 µM and 1.77 µM | 12.4 ± 3 | could outcompete the bound, radiolabeled (p)ppGpp | tighter binding of ppGpp than pppGpp; also recorded: ND; stronger binding to ppGpp than pppGpp | converted most of ppGpp | converted most of ppGpp | ~85 µM and 85 µM | ~85 µM and 85 µM | 11 | 20 | 1.6 | 0.7 | 40
